# Test results from patent US20160310578A1, “METHOD OF ACCELERATING OSTEOGENESIS” (Fuji Nihon Seito Corporation, priority 2015, published 2016).
# Key:
# [1] = test system: OVX rats with osseous defect in the epiphyseal area of the tibia; experiment: Recovery promoting effect in osseous defect of the tibia in OVX rats, 3D CTR (Example 5); assay type: in vivo, Wistar rats; settings: one month
# Procedure: Animal experiments were conducted using ovariectomized animals (OVX). The animals used were 48 female Wistar rats with body weight of approximately 350 g. They were used in the experiments after being preliminarily reared on standard feed (CE-2 manufactured by CLEA Japan, Inc.) for one week after undergoing ovariectomy. All experiments were approved by the Animal Experiment Ethics Committee of CLEA Japan, Inc. and were conducted according to the policies thereof. The standard feed CE-2 manufactured by CLEA Japan, Inc. contains 1.06 g of calcium per 100 g of the feed as calcium carbonate and calcium iodate (according to 2009 periodic analysis average values listed on the website of CLEA Japan, Inc.).
# Using 12 OVX rats after preliminary feeding, phenobarbital in a dose of 0.5 mg per 10 g of body weight was administered intraperitoneally to anesthetize the rats. An incision was made in the skin on the upper portion of the knee joint, and then the knee joint was exposed, and a hole approximately 0.5 mm in diameter was made using a dental round bur in the epiphyseal area of the tibia, and then the incision was sutured.
# After the surgery, the rats were divided into four groups of three rats each. Group A was reared on feed obtained by adding 3% collagen and 5% DFA III to the standard feed; Group B was reared on feed obtained by only adding the same amount of DFA III; Group C was reared on feed obtained by only adding the same amount of collagen; Group D was reared on the standard feed only.
# After one month of feeding, the same anesthesia was performed, and perfusion fixation was performed with 4% paraformaldehyde from the left ventricle in the same manner as the femur experiment. After fixation, the region where the surgery was performed was extracted, and after washing with 0.8 M cacodylate buffer adjusted to pH 7.4, 3D CTR images were taken using the CTR apparatus mentioned above (FIG. 6).
# The bone area and the bone marrow area were measured using five images of the osseous defect in the same manner as in Example 4 (Table 6).
# [2] = test system: osteoblastic cell line MC3T3-E1; experiment: Effect of DFA III on the number of osteoblastic cells (MTS, absorbance 490 nm) (Example 3); assay type: cell-based, mouse; settings: for light absorbance at 490 nm (relative number of the cells): MC3T3-E1
# Procedure: The effect of DFA III on osteoblasts was examined using the osteoblastic cell line MC3T3-E1 isolated from […].
# First, 3×10^5 cells of MC3T3-E1 were inoculated in 96 wells containing 90 μL of α-MEM medium containing penicillin (manufactured by Sigma) and streptomycin (manufactured by Sigma) (200 μg/mL). DFA III was added to the culture solution so as to result in concentrations of 10 mM, 50 mM, and 100 mM, and the cells were cultured at 37° C. at a CO2 concentration of 5%. Culturing was performed for five wells each for each of the concentrations, and the number of the cells was counted on day 1, day 4, day 7, and day 14 after culturing.
# When counting the number of the cells, the cells were treated with 10 mM trypsin for 30 minutes under the same conditions as the cell culture, and then separated from the well. The cells were then added to 100 μL of MTS solution (manufactured by Promega Corp.), and incubated for 30 minutes under the same conditions as the cell culture, and a light absorbance at the wavelength of 490 nm was measured using a plate reader (“iMark Plate Reader” manufactured by Bio-Rad Laboratories, Inc.). The measured light absorbance represents the relative number of the cells.
# The average value of the three from the five wells cultured under the same conditions was taken as the measured value. As a control, the wells were used, where the medium of the wells to which DFA III was not added.
# [3] = test system: ovariectomized animals (OVX); experiment: Bone tissue analysis by 3D CTR of the femoral articular head in OVX rats (Example 4); assay type: in vivo, Wistar rats
# Procedure: Animal experiments were conducted using ovariectomized animals (OVX). The animals used were 48 female Wistar rats with body weight of approximately 350 g. They were used in the experiments after being preliminarily reared on standard feed (CE-2 manufactured by CLEA Japan, Inc.) for one week after undergoing ovariectomy. All experiments were approved by the Animal Experiment Ethics Committee of CLEA Japan, Inc. and were conducted according to the policies thereof. The standard feed CE-2 manufactured by CLEA Japan, Inc. contains 1.06 g of calcium per 100 g of the feed as calcium carbonate and calcium iodate (according to 2009 periodic analysis average values listed on the website of CLEA Japan, Inc.). After preliminary feeding, 12 OVX rats were divided into groups of three rats each. Group A was reared on feed obtained by adding 3% collagen and 5% DFA III to the standard feed; Group B was reared on feed obtained by only adding the same amount of DFA III; Group C was reared on feed obtained by only adding the same amount of collagen; Group D was reared on the standard feed only. One week, two weeks, three weeks, and one month after the start of feeding, phenobarbital in a dose of 0.5 mg per 10 g of body weight was administered intraperitoneally to anesthetize the rats. Perfusion fixation was performed by injecting 4% paraformaldehyde solution diluted with cacodylate buffer of pH 7.4 and perfusing for 5 minutes from the left ventricle. After fixation, the articular head of the femur and the tibia of the lower limbs were extracted. 3D CTR images of the articular head were taken using a 3D Micro X-ray CTR-mCT2 for experimental animals (manufactured by Rigaku Corp.). From the 3D CTR images that were taken, five images of cross-sections in the same direction were selected, and the bone area and bone marrow area in each individual was measured and the average taken (Table 5 and FIG. 5).
# [4] = 3% collagen and/or 5% DFA III in standard feed
# [5] = 3% collagen and/or 5% DFA III in standard feed, one month, articular head of femur
structure (smiles),measurement,setting,value
"OC[C@H]1O[C@@]2(CO[C@]3(CO)O[C@H](CO)[C@@H](O)[C@@H]3O2)[C@@H](O)[C@@H]1O [DFA III, Difructose anhydride III]",Bone area,[1]; [4],90.7 μm^2
same,Bone marrow area,[1]; [4],704.8 μm^2
same,Total area,[1]; [4],795.5 μm^2
same,Proportion of bone in all bone (%),[1],11.4%
same,proportion of new bone formation greater than control Group D,[1],4.6%
same,light absorbance at 490 nm (relative number of the cells),"[2]; 10 mM DFA III, 1 Day after culture",0.309
same,light absorbance at 490 nm (relative number of the cells),"[2]; 10 mM DFA III, 4 Day after culture",0.323
same,light absorbance at 490 nm (relative number of the cells),"[2]; 10 mM DFA III, 7 Day after culture",0.388
same,light absorbance at 490 nm (relative number of the cells),"[2]; 10 mM DFA III, 14 Day after culture",0.736
same,light absorbance at 490 nm (relative number of the cells),"[2]; 50 mM DFA III, 1 Day after culture",0.305
same,light absorbance at 490 nm (relative number of the cells),"[2]; 50 mM DFA III, 4 Day after culture",0.380
same,light absorbance at 490 nm (relative number of the cells),"[2]; 50 mM DFA III, 7 Day after culture",0.430
same,light absorbance at 490 nm (relative number of the cells),"[2]; 50 mM DFA III, 14 Day after culture",0.849
same,light absorbance at 490 nm (relative number of the cells),"[2]; 100 mM DFA III, 1 Day after culture",0.321
same,light absorbance at 490 nm (relative number of the cells),"[2]; 100 mM DFA III, 4 Day after culture",0.390
same,light absorbance at 490 nm (relative number of the cells),"[2]; 100 mM DFA III, 7 Day after culture",0.438
same,light absorbance at 490 nm (relative number of the cells),"[2]; 100 mM DFA III, 14 Day after culture",0.988
same,effect on cell division of osteoblasts,"[2]; MC3T3-E1, conclusion from Table 4",stimulates cell division of osteoblasts
same,cell number values versus control group,"[2]; day 1, day 4 and day 7 after culturing",control group exhibited higher values
same,cell number values versus control group,"[2]; day 14 after culturing, 10, 50 and 100 mM",higher values than the control group
same,Proportion of bone in articular head (%),"[3]; 3% collagen and/or 5% DFA III in standard feed, one month",56.1%
same,Bone area (average),[3]; [5],320.0 μm^2
same,Bone marrow area (average),[3]; [5],250.9 μm^2
same,Total area,[3]; [5],570.9 μm^2
same,"CTR images: compact bone and cancellous bone, comparison of the groups","[3]; one month, FIG. 4",No marked difference
same,increase of the proportion of bone in the articular head versus control Group D,"[3]; one month, compared with standard feed only",10.2%
same,more bone tissue than the group fed standard feed alone,[3]; summary of Example 4,approximately 10%
